The record followed here is patent EP4703354A1, “COMPOUND AS CCR6 ANTAGONIST, AND PHARMACEUTICAL COMPOSITION AND USE THEREOF” (Wuhan Createrna Science and Technology Co.,Ltd., priority 2023, dated 2024).

This data set in a line: in vivo pharmacokinetic study in SD rats. The note with it: male, rat, plasma; for bioavailability: 1 mg/kg PO vs 1 mg/kg IV, read-out: Oral bioavailability F (%); for AUC(0-t) / Cmax / half-life: 1 mg/kg. The essentials: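 Male SD rats (180-200 g), 3 per route: single fasted oral gavage in 1% Tween 80 or tail-vein IV bolus in 50% PEG400. Orbital blood into EDTA-K2 sampled to 8 h; plasma analysed and PK parameters derived by non-compartmental analysis.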

The bioavailability is the share of a dose that reaches the circulation, judged against a reference dose that is usually intravenous. By AUC(0-t) is commonly meant the area under the concentration-time curve up to a stated or last time point. Low values mean low exposure, high ones high exposure. For orientation: Cmax means the peak of the concentration-time curve. A word on the half-life: it is the time in which the quantity being followed falls by half. A higher half-life goes with slow decline. In the case of `CN(C)C(=O)c1nccc(Nc2c(N[C@@H](C#CC3CCC3)[C@]3(C)CC(F)(F)CO3)c(=O)c2=O)c1O` (single isomer, unassigned) [110A], the bioavailability was determined as 68.6%. For the setting “IV”, this compound had an AUC(0-t) of 580 ng·h/mL, a Cmax of 1860 ng/mL and a half-life of 19.2 min. For the same compound, where the note is “PO”, the AUC(0-t) is 397 ng·h/mL, the peak level (Cmax) was 311 ng/mL and the half-life is 55.8 min.

On to `CN(C)C(=O)c1nccc(Nc2c(N[C@@H](c3nc(Cl)ccc3F)[C@@]3(C)CC(F)(F)CO3)c(=O)c2=O)c1O` [068B, 4-((2-(((S)-(6-chloro-3-fluoropyridin-2-yl)((R)-4,4-difluoro-2-methyltetrahydrofuran-2-yl)methyl)amino)-3,4-dioxocyclobut-1-en-1-yl)amino)-3-hydroxy-N,N-dimethylpicolinamide], for which the bioavailability is 23.4%. Where the note is “IV”, this compound gave an AUC(0-t) of 1270 ng·h/mL, a Cmax of 3630 ng/mL and a half-life of 15 min. For the setting “PO”, this compound showed an AUC(0-t) of 298 ng·h/mL, a Cmax of 291 ng/mL and a half-life of 91.8 min.

`Cc1cc(F)cnc1[C@H](Nc1c(Nc2ccnc(C(=O)N(C)C)c2O)c(=O)c1=O)[C@]1(C)CC(F)(F)CO1` [093A, 4-((2-(((S)-((S)-4,4-difluoro-2-methyltetrahydrofuran-2-yl)(5-fluoro-3-methylpyridin-2-yl)methyl)amino)-3,4-dioxocyclobut-1-en-1-yl)amino)-3-hydroxy-N,N-dimethylpicolinamide]: the bioavailability was determined as 23.7%. Where the note is “IV”, this compound showed an AUC(0-t) of 1240 ng·h/mL, a Cmax of 4840 ng/mL and a half-life of 14.4 min. For the same compound, under “PO”, the AUC(0-t) is 295 ng·h/mL, the highest level (Cmax) was 271 ng/mL and the half-life was 66 min.
